# Assays:
# Escherichia coli [1] = assay: In vitro broth dilution minimal inhibitory concentration (standard microdilution method); type: cell-based; conditions: Escherichia coli; Mueller-Hinton broth; 24-hour; read-out: Microdilution Broth MIC
# [2] = tested on: Staphylococcus epidermidis; assay: as above; type: cell-based; conditions: 24 h, Mueller-Hinton broth, 24-hour, read-out: Microdilution Broth MIC
# Escherichia coli [3] = assay: In vivo efficacy of compounds administered subcutaneously in mouse intraperitoneal infections; conditions: sc, 168 h; mouse i.p. Escherichia coli infection; subcutaneous; dosed at infection and 4 h post-infection; 7 days; read-out: ED50 (50 percent effective dose)
# Staphylococcus aureus [4] = assay: as above; conditions: sc, 168 h; mouse i.p. Staphylococcus aureus infection; subcutaneous; dosed at infection and 4 h post-infection; 7 days; read-out: ED50 (50 percent effective dose)
# Escherichia coli [5] = assay: In vivo efficacy of orally administered compounds in mouse intraperitoneal infections; conditions: 168 h; mouse i.p. Escherichia coli infection; oral; dosed at infection and 4 h post-infection; 7 days; read-out: ED50 (50 percent effective dose)
# Staphylococcus aureus [6] = assay: as above; conditions: Staphylococcus aureus, po, 168 h, mouse i.p. Staphylococcus aureus infection; oral; dosed at infection and 4 h post-infection; 7 days; read-out: ED50 (50 percent effective dose)
# [7] = Water solubility (observation); type: physicochemical
SMILES,MIC (Escherichia coli [1]) [µg/mL],MIC [2] [µg/mL],water solubility [7],ED50 (Escherichia coli [3]) [mg/kg],ED50 (Staphylococcus aureus [4]) [mg/kg],ED50 (Escherichia coli [5]) [mg/kg],ED50 (Staphylococcus aureus [6]) [mg/kg]
"CC(=O)NCC1CN(c2ccc(NS(C)(=O)=O)cc2)C(=O)O1 (single isomer, unassigned) [Example 151, (l)-N-[3-[4-(Methylsulfonylamino)phenyl]-2-oxooxazolidin-5-ylmethyl]acetamide]",> 200,200,quite water soluble,,9.7,,62.9
"CSCC(=O)c1ccc(N2CC(CNC(C)=O)OC2=O)cc1 (single isomer, unassigned) [Example 161, (l)-N-[3-[4-(Methylthioacetyl)phenyl]-2-oxo-5-oxazolidinylmethyl]acetamide]",> 200,1.6,,> 120,5.4,> 120,10.4
CC(=O)NCC1CN(c2ccc(C(C)=NNC(C)=O)cc2)C(=O)O1 (centres unmarked) [Example 36],> 200,25,,> 120,7.4,47.2,4.7
CC(=O)NCC1CN(c2ccc(C(C)C)cc2)C(=O)O1 (centres unmarked) [Example 38],> 200,9.4,,60.4,4.8,> 120,9.1
COC(=O)NCC1CN(c2ccc(C(C)C)cc2)C(=O)O1 (centres unmarked) [Example 39],> 200,12.5,,> 120,5.5,> 120,6.1
CNS(=O)(=O)c1ccc(N2CC(CNC(C)=O)OC2=O)cc1 (centres unmarked) [Example 46],> 200,12.5,,91,> 13,62.5,15.8
CCCCc1ccc(N2CC(CNC(C)=O)OC2=O)cc1 (centres unmarked) [Example 81],> 200,6.2,,> 120,27.9,> 120,47.9
CCc1ccc(N2CC(CNC(C)=O)OC2=O)cc1 (centres unmarked) [Example 82],> 200,3.1,,95.1,2,65.9,2.7
CCc1ccc(N2CC(CNC(=O)OC)OC2=O)cc1 (centres unmarked) [Example 83],> 200,12.5,,> 12,6.6,> 120,9.6
CC(=O)NCC1CN(c2ccc(Br)cc2)C(=O)O1 (centres unmarked) [Example 86],> 200,6.25,,> 40,4.7,> 40,6.9
CC(=O)NCC1CN(c2ccc(Cl)cc2)C(=O)O1 (centres unmarked) [Example 87],> 200,100,,> 120,10.5,> 120,42
CC(=O)NCC1CN(c2ccc(F)cc2)C(=O)O1 (centres unmarked) [Example 88],> 200,> 200,,> 120,21.9,> 120,23.6
CC(=O)c1ccc(N2CC(CNC(=O)CCCl)OC2=O)cc1 (centres unmarked) [Example 95],> 200,12.5,,60.7,7.7,> 120,10.9
COC(=O)NCC1CN(c2ccc(S(=O)(=O)N=[N+]=[N-])cc2)C(=O)O1 (centres unmarked) [Example 117],> 200,200,,> 120,7.2,> 120,16.1

# Continued, in another order:
MIC (Escherichia coli [1]) [µg/mL],MIC [2] [µg/mL],water solubility [7],SMILES,ED50 (Escherichia coli [3]) [mg/kg],ED50 (Staphylococcus aureus [4]) [mg/kg],ED50 (Escherichia coli [5]) [mg/kg],ED50 (Staphylococcus aureus [6]) [mg/kg]
> 200,> 200,,"CC(=O)N(CC1CN(c2ccc(S(C)(=O)=O)cc2)C(=O)O1)C1CCCCC1 (racemic) [Example 124, (dl)-N-cyclohexyl-N-[3-[4-(methylsulfonyl)phenyl]-2-oxooxazolidin-5-ylmethyl]acetamide]",> 120,16.3,> 120,48.4
50,12.5,,"NS(=O)(=O)c1ccc(N2CC(CNC(=O)C(Cl)Cl)OC2=O)cc1 (single isomer, unassigned) [Example 112, (l)-2,2-Dichloro-N-[3-[4-(aminosulfonyl)phenyl]-2-oxooxazolidin-5-ylmethyl]acetamide]",62.7,14.4,> 360,> 360
100,25,,"CC(=O)NCC1CN(c2ccc(S(N)(=O)=O)cc2)C(=O)O1 (single isomer, unassigned) [Example 113, (l)-N-[3-[4-(Aminosulfonyl)phenyl]-2-oxooxazolidin-5-ylmethyl]acetamide]",11.7,9.6,29.7,17.2
> 200,10,,"CC(=O)NCC1CN(c2ccc([S+](C)[O-])cc2)C(=O)O1 (single isomer, unassigned) [Example 120, (l)-N-[3-[4-(Methylsulfinyl)phenyl]-2-oxooxazolidin-5-ylmethyl]acetamide]",6.1,2.8,11.1,3.3
12.5,0.4,,"CC(=O)NCC1CN(c2ccc(C(C)=O)cc2)C(=O)O1 (single isomer, unassigned) [Example 129, (l)-N-[3-(4-Acetylphenyl)-2-oxo-5-oxazolidinylmethyl)acetamide]",14,0.5,13.6,0.7
50,3.1,,"CC(=O)NCC1CN(c2ccc(C(C)O)cc2)C(=O)O1 (single isomer, unassigned) [Example 130, (l)-N-[3-[4-(1-Hydroxyethyl)phenyl]-2-oxo-5-oxazolidinylmethyl]acetamide]",26.3,< 1.3,17.4,2.1
> 200,6.2,,"CC(=O)NCC1CN(c2ccc(C(C)=NNC(C)=O)cc2)C(=O)O1 (single isomer, unassigned) [Example 132, (l)-N-[3-[4-[1-(Acetylhydrazono)ethyl]phenyl]-2-oxo-5-oxazolidinylmethyl]acetamide]",> 120,6.9,24.7,< 4.4
> 200,1.6,,"CCc1ccc(N2CC(CNC(C)=O)OC2=O)cc1 (single isomer, unassigned) [Example 133, (l)-N-[3-(4-Ethylphenyl)-2-oxo-5-oxazolidinylmethyl]acetamide]",15.2,2.2,17.9,3
200,2.4,,"CC(=O)NCC1CN(c2ccc([N+](=O)[O-])cc2)C(=O)O1 (single isomer, unassigned) [Example 146, (l)-N-[3-(4-Nitrophenyl)-2-oxooxazolidin-5-ylmethyl]acetamide]",40,> 13,29.8,2
> 50,> 50,,"CC(=O)NCC1CN(c2ccc(S)cc2)C(=O)O1 (single isomer, unassigned) [Example 153, (l)-N-[3-(4-Mercaptophenyl)-2-oxooxazolidin-5-ylmethyl]acetamide]",57.2,< 13,17,5.7
2.5,3.2,,CS(=O)(=O)c1ccc(N2CC(CNC(=O)CCl)OC2=O)cc1 (centres unmarked) [Example 67],99,18.6,> 120,42.5
200,18.8,,CS(=O)(=O)c1ccc(N2CC(CNC(=O)CCCl)OC2=O)cc1 (centres unmarked) [Example 94],46.7,18.7,76.8,30.2
25,0.4,,"CCC(=O)c1ccc(N2CC(CNC(C)=O)OC2=O)cc1 (stereo not drawn) [Example 134, l-N-[2-oxo-3-[4-(1-oxopropyl)phenyl]-5-oxazolidinylmethyl]acetamide]",42.1,< 4.4,46.9,< 4.4
100,0.15,,"CC(=O)NCC1CN(c2ccc(C(=O)CCl)cc2)C(=O)O1 (stereo not drawn) [Example 135, l-N-[3-[4-(chloroacetyl)phenyl]-2-oxo-5-oxazolidinylmethyl]acetamide]",100,< 4.4,100,< 4.4
> 128,1,,"CCCC(=O)c1ccc(N2CC(CNC(C)=O)OC2=O)cc1 (stereo not drawn) [Example 138, l-N-[2-oxo-3-[4-(1-oxobutyl)phenyl]-5-oxazolidinylmethyl]acetamide]",> 120,5.1,> 120,9.6
> 128,1,,CC(=O)NCC1CN(c2ccc(C(C)=O)c(C)c2)C(=O)O1 (centres unmarked) [Example 142],52.1,1.8,52.1,1.8
50,6.3,,CS(=O)(=O)c1ccc(N2CC(CNC(=O)CN=[N+]=[N-])OC2=O)cc1 (centres unmarked) [Example 158],25,< 13,56.5,11.4
> 128,4,,CC(=O)c1ccc(N2CC(CNC(=O)C(Cl)Cl)OC2=O)cc1 (centres unmarked) [Example 172],> 120,13.6,> 120,10.2
